Literature values, collected in patent US5908934A, “Process for the preparation of chiral ketone intermediates useful for the preparation of flavopiridol and analogs” (Bristol-Myers Squibb Company, priority 1997, dated 1999).

Test system: apoptosis
Conditions: combination with known cytotoxic agents; J. Cell Sci., 108, 2897 (1995)

Cn1cnc2c(NCc3ccccc3)nc(NCCO)nc21 [olomucine]
synergy with known cytotoxic agents in inducing apoptosis: act synergistically with known cytotoxic agents in inducing apoptosis
